From patent US20210137961A1, “Compositions and Methods for Treating Dry Eye Diseases” (priority 2017, published 2021)
Values after ≈ are worked out from the molar mass of the structure shown. Like-named read-outs stand apart in the source and are kept apart here.

Tests used:
Legionella pneumophila = type: cell-based
Streptococcus pneumoniae = assay: MIC against Streptococcus pneumoniae; type: cell-based
Moraxella catarrhalis = assay: MIC against Moraxella catarrhalis; type: cell-based; settings: N 21
Chlamydia trachomatis = assay: MIC against Chlamydia trachomatis; type: cell-based; settings: N 10
Streptococcus agalactiae = assay: MIC against Streptococcus agalactiae; type: cell-based; settings: N 535
[1] = speed of uptake and ultimate tissue concentration
[2] = test system: Haemophilus parainfluenzae; assay: MIC against Haemophilus parainfluenzae; type: cell-based; settings: N 11
[3] = Streptococcus pneumoniae, N 150

CC[C@H]1OC(=O)[C@@](C)(F)C(=O)[C@H](C)[C@@H](O[C@@H]2O[C@H](C)C[C@H](N(C)C)[C@H]2O)[C@](C)(OC)C[C@@H](C)C(=O)[C@H](C)[C@H]2N(CCCCn3cc(-c4cccc(N)c4)nn3)C(=O)O[C@]12C [Solithromycin, solithromycin]
MIC90 (Legionella pneumophila; Legionella pneumophila (30 strains)): ≤0.015 µg/mL | MIC50 (Legionella pneumophila; Legionella pneumophila, N 30): ≤0.015 µg/mL | MIC90 (Legionella pneumophila; Legionella pneumophila, N 30): ≤0.015 µg/mL | MIC Range (Legionella pneumophila; Legionella pneumophila, N 30): ≤0.015 µg/mL | MIC90 (Streptococcus pneumoniae; Streptococcus Pneumoniae (150 strains)): 0.25 µg/mL (≈ 0.296 µM) | MIC50 (Streptococcus pneumoniae; [3]): 0.015 µg/mL (≈ 0.0178 µM) | MIC90 (Streptococcus pneumoniae; [3]): 0.25 µg/mL (≈ 0.296 µM) | MIC Range (Streptococcus pneumoniae; [3]): ≤8 to 500 ng/mL | MIC50 (Moraxella catarrhalis): 0.12 µg/mL (≈ 0.142 µM) | MIC90 (Moraxella catarrhalis): 0.12 µg/mL (≈ 0.142 µM) | MIC Range (Moraxella catarrhalis): ≤8 to 500 ng/mL | MIC50 (Chlamydia trachomatis): 0.25 µg/mL (≈ 0.296 µM) | MIC90 (Chlamydia trachomatis): 0.25 µg/mL (≈ 0.296 µM) | MIC Range (Chlamydia trachomatis): 0.125 to 0.5 µg/mL | MIC50 (Streptococcus agalactiae): ≤0.03 µg/mL | MIC90 (Streptococcus agalactiae): ≤0.03 µg/mL | MIC Range (Streptococcus agalactiae): ≤0.03-0.5 ^ μg/mL | tissue distribution relative to Azi [1]: 10 fold | MIC50 [2]: 2 µg/mL (≈ 2.37 µM) | MIC90 [2]: 2 µg/mL (≈ 2.37 µM) | MIC Range [2]: 1 to 2 µg/mL
